What was measured:
2′-deoxyguanosine (dG) [1] = test: 8OHdG produced from dG with test substance and coexisting bisphenol A, standing or UV (Example 9); assay type: biochemical
Method: 170 μl portions of ultrapure water and predetermined concentrations of vitamin C (VC), vitamin E (VE), and glucose (Glu) as test substance were added to each well of two […] plastic plates and, as additional solution, 20 μl of ultrapure water or predetermined concentration of bisphenol A (BPA) were injected into each well.

2′-deoxyguanosine (dG) [2] = test: 8OHdG produced from added dG, standing at room temperature or UV irradiation (Examples 1-7); settings: for evaluation in words: oxidation induction or antioxidant ability toward dG: conclusions of Examples 2-7;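 on all read-outs here: Cell-free test: dG in test solution, held at room temperature or exposed to 254 nm UV, then 8OHdG quantified by HPLC with electrochemical detection, compared against dG in ultrapure water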
Method: Separately, the amount of 8OHdG after an ultrapure water solution of dG is left to stand under the same conditions as above for a predetermined time is measured (this value is defined as B). If A is greater than B, the test substance is evaluated to have oxidation induction ability and conversely if A is smaller than B, the test substance is evaluated to have antioxidant ability. In either case, it is judged that the greater the difference is, the greater degree of oxidation induction ability or antioxidant capability the test substance has.
Then, 20 μl of 200 μg/ml dG (dissolved in ultrapure water) was added to each well and one of the plates was left to stand as it was at room temperature for 90 minutes and the other plate was irradiated with UV light (254 nm, 860 μW/cm^2) for 90 minutes in a UV light irradiation box. […] Subsequently, nucleosides in the both were quantified by use of the UV light absorption analyzer connected to the HPLC and the electrochemical detector.
Solutions of predetermined concentrations of vitamin C (VC), vitamin E (VE), catechin (Cate) and tannic acid (Tan) were prepared and 180 μl portions were injected into each well of two 99-well plastic plates. Then, 20 μl of 200 μg/ml dG (dissolved in ultrapure water) was added to each well and one of the plates was left to stand as it was at room temperature for 90 minutes and the other plate was irradiated with UV light (254 nm, 860 μW/cm^2) for 90 minutes in a UV light irradiation box.
Then, 20 μl of 200 μg/ml dG (dissolved in ultrapure water) was added to each well and one of the plates was left to stand as it was at room temperature for 90 minutes and another plate was left to stand similarly at room temperature for 24 hours. The remaining three plates were irradiated with UV light (254 nm, 860 μW/cm^2) for 60 minutes, 90 minutes and 120 minutes, respectively, in a UV light irradiation box.
Solutions of predetermined concentrations of glucose (Glu), raffinose (Raffi) and sucrose (Suc) were prepared and 180 μl portions thereof were injected into each well of four 99-well plastic plates. Then, 20 μl of 200 μg/ml dG (dissolved in ultrapure water) was added to each well and one of the plates was left to stand as it was at room temperature for 90 minutes. The remaining three plates were irradiated with UV light (254 nm, 860 μW/cm^2) for 60 minutes, 90 minutes and 120 minutes, respectively, in a UV light irradiation box.
Then, 20 μl of 200 μg/ml dG (dissolved in ultrapure water) was added to each well and one of the plates was left to stand as it was at room temperature for 90 minutes and the other plate was irradiated with UV light (254 nm, 860 μW/cm^2) for 90 minutes in a UV light irradiation box.
Solutions of various concentrations of uric acid (dissolving fluid: distilled water+0.025% FBS) were prepared and 180 μl portions thereof were injected into each well of two 99-well plastic plates. Then, 20 μl of 200 μg/ml dG (dissolved in ultrapure water) was added to each well and one of the plates was left to stand as it was at room temperature for 90 minutes and the other plate was irradiated with UV light (254 nm, 860 μW/cm^2) for 90 minutes in a UV light irradiation box.

[3] = test substance 0.001%, additional solution ultrapure water
[4] = 1 μg/ml, Table 5, ultrapure water 0.219
[5] = 1 μg/ml, Table 5, ultrapure water 0.422
[6] = 10 μg/ml, Table 5, ultrapure water 0.219
[7] = 10 μg/ml, Table 5, ultrapure water 0.422
[8] = 100 μg/ml, Table 5, ultrapure water 0.219
[9] = 100 μg/ml, Table 5, ultrapure water 0.422
[10] = 1 mg/ml, Table 5, ultrapure water 0.219
[11] = 1 mg/ml, Table 5, ultrapure water 0.422

Structure (SMILES) | evaluation in words: oxidation induction or antioxidant ability toward dG (2′-deoxyguanosine (dG) [2]) | 8OHdG concentration, 90 Minutes' standing (2′-deoxyguanosine (dG) [2]; [4]) [ng/mL] | 8OHdG concentration, 90 Minutes' UV irradiation (2′-deoxyguanosine (dG) [2]; [5]) [ng/mL] | 8OHdG concentration, 90 Minutes' standing (2′-deoxyguanosine (dG) [2]; [6]) [ng/mL] | 8OHdG concentration, 90 Minutes' UV irradiation (2′-deoxyguanosine (dG) [2]; [7]) [ng/mL] | 8OHdG concentration, 90 Minutes' standing (2′-deoxyguanosine (dG) [2]; [8]) [ng/mL] | 8OHdG concentration, 90 Minutes' UV irradiation (2′-deoxyguanosine (dG) [2]; [9]) [ng/mL] | 8OHdG concentration, 90 Minutes' standing (2′-deoxyguanosine (dG) [2]; [10]) [ng/mL] | 8OHdG concentration, 90 Minutes' UV irradiation (2′-deoxyguanosine (dG) [2]; [11]) [ng/mL] | other results
Cc1c(C)c2c(c(C)c1O)CC[C@@](C)(CCC[C@H](C)CCC[C@H](C)CCCC(C)C)O2 [VE, vitamin E] | very stable antioxidant | – | – | – | – | – | – | – | – | effect on 8OHdG with BPA and UV light irradiation (2′-deoxyguanosine (dG) [1]; Example 9): significantly inhibit the increase in 8OHdG; 8OHdG concentration, 90 Minutes' UV irradiation (2′-deoxyguanosine (dG) [1]; test substance 0.00001%, additional solution BPA (50 ppm), BPA alone 11.58): 15.43 ng/mL; 8OHdG concentration, 90 Minutes' UV irradiation (2′-deoxyguanosine (dG) [1]; test substance 0.0001%, additional solution BPA (50 ppm), BPA alone 11.58): 8.27 ng/mL; 8OHdG concentration, 90 Minutes' standing (2′-deoxyguanosine (dG) [1]; test substance 0.001%, additional solution BPA (50 ppm), BPA alone 0.22): 0.29 ng/mL; 8OHdG concentration, 90 Minutes' UV irradiation (2′-deoxyguanosine (dG) [1]; test substance 0.001%, additional solution BPA (50 ppm), BPA alone 11.58): 3.79 ng/mL; 8OHdG concentration, 90 Minutes' UV irradiation (2′-deoxyguanosine (dG) [1]; [3]): 0.28 ng/mL; 8OHdG concentration, 90 Minutes' standing (2′-deoxyguanosine (dG) [1]; [3]): 0.18 ng/mL; 8OHdG concentration, 90 Minutes' standing (2′-deoxyguanosine (dG) [2]; 0.0005%, Table 2, distilled water 0.15): 0.49 ng/mL; 8OHdG concentration, 90 Minutes' UV irradiation (2′-deoxyguanosine (dG) [2]; 0.0005%, Table 2, distilled water 1.23): 0.30 ng/mL; 8OHdG concentration, 90 Minutes' standing (2′-deoxyguanosine (dG) [2]; 0.005%, Table 2, distilled water 0.15): 0.45 ng/mL; 8OHdG concentration, 90 Minutes' UV irradiation (2′-deoxyguanosine (dG) [2]; 0.005%, Table 2, distilled water 1.23): 0.18 ng/mL; 8OHdG concentration, 90 Minutes' standing (2′-deoxyguanosine (dG) [2]; 0.05%, Table 2, distilled water 0.15): 0.44 ng/mL; 8OHdG concentration, 90 Minutes' UV irradiation (2′-deoxyguanosine (dG) [2]; 0.05%, Table 2, distilled water 1.23): 0.42 ng/mL
NC(=O)NCCC[C@H](N)C(=O)O [Cit, 1-citrulline] | exhibited antioxidant ability | 0.184 | 0.332 | 0.179 | 0.305 | 0.120 | 0.225 | 0.156 | 0.125 | –
N=C(N)NCCC[C@H](N)C(=O)O [Arg, 1-arginine] | exhibited antioxidant ability | 0.186 | 0.323 | 0.153 | 0.253 | 0.150 | 0.305 | 0.173 | 0.299 | –
O=c1[nH]c(=O)c2[nH]c(=O)[nH]c2[nH]1 [uric acid] | high degree of DNA oxidation injury | – | – | – | – | – | – | – | – | 8OHdG concentration, 90 Minutes' standing (2′-deoxyguanosine (dG) [2]; 0.01 μg/ml, Table 6, dissolving fluid 0.218): 0.176 ng/mL; 8OHdG concentration, 90 Minutes' UV irradiation (2′-deoxyguanosine (dG) [2]; 0.01 μg/ml, Table 6, dissolving fluid 1.007): 1.064 ng/mL; 8OHdG concentration, 90 Minutes' standing (2′-deoxyguanosine (dG) [2]; 0.1 μg/ml, Table 6, dissolving fluid 0.218): 0.193 ng/mL; 8OHdG concentration, 90 Minutes' UV irradiation (2′-deoxyguanosine (dG) [2]; 0.1 μg/ml, Table 6, dissolving fluid 1.007): 0.966 ng/mL; 8OHdG concentration, 90 Minutes' standing (2′-deoxyguanosine (dG) [2]; 1 μg/ml, Table 6, dissolving fluid 0.218): 0.175 ng/mL; 8OHdG concentration, 90 Minutes' UV irradiation (2′-deoxyguanosine (dG) [2]; 1 μg/ml, Table 6, dissolving fluid 1.007): 2.369 ng/mL; 8OHdG concentration, 90 Minutes' standing (2′-deoxyguanosine (dG) [2]; 10 μg/ml in distilled water+0.025% FBS, Table 6, dissolving fluid 0.218): 0.147 ng/mL; 8OHdG concentration, 90 Minutes' UV irradiation (2′-deoxyguanosine (dG) [2]; 10 μg/ml in distilled water+0.025% FBS, Table 6, dissolving fluid 1.007): 15.619 ng/mL
NCCCNCCCCNCCCN [Spe, spermine] | exhibited antioxidant ability | 0.140 | 0.297 | 0.150 | 0.328 | 0.154 | 0.351 | 0.179 | 0.112 | –

Reference: patent US7531312B2, “Simplified biological evaluation method of natural and artificial chemicals by using DNA injury index and apparatus therefor” (TAS Project Co., Ltd., priority 2000, dated 2009)
